Data published in US11865098B1, “Methods and compositions for treating excessive sleepiness” (Axsome Malta Ltd., priority 2017, dated 2024).

Key:
[1] = tested on: patients with narcolepsy type 1 or type 2; assay: ESS, 12-week phase 3 study in narcolepsy; assay type: in vivo, human
Description: (§1) The ESS is a subjective sleepiness test that is well known in the art and routinely used to measure the sleepiness level of a subject. The scale is intended to measure daytime sleepiness through the use of a short questionnaire that asks the subject to rate his or her probability of falling asleep on a scale of increasing probability from 0 to 3 for eight different situations that most people engage in during their daily lives. The scores for the eight questions are added together to obtain a single number that estimates the subject's average sleep propensity (ASP). A number in the 0-10 range is considered to be normal while 11-12 indicates mild excessive sleepiness, 13-15 indicates moderate excessive sleepiness, and 16 or higher indicates severe excessive sleepiness. Narcolepsy patients have an average score of about 17. Obstructive sleep apnea (OSA) patients with excessive sleepiness have an average score of about 15.
The study was a 12-week, double-blind, randomized, placebo-controlled, parallel-group study. […]
Efficacy analyses were based on the modified intent-to-treat population (mITT), defined as all patients who were randomized, received at least 1 dose of study drug, and had baseline and at least 1 post-baseline evaluation of both MWT and ESS. MWT and ESS were analyzed using a mixed-effect repeated measures (MMRM) model. PGI-C was analyzed using a chi-square test. […]

[2] = tested on: adults with OSA and excessive sleepiness; assay: Epworth Sleepiness Scale (ESS), phase 3 randomized withdrawal study in OSA; assay type: in vivo, human; conditions: for ESS score after 4 weeks of APC treatment: randomized patients, mITT
Description: as §1
The study was a double-blind, placebo-controlled, enriched, randomized withdrawal design (FIG. 1). In the Titration Phase (weeks 1-2), patients started on a once-daily dose of APC 75 mg and could be titrated up or down every 3 days to reach a maximum tolerated dose of APC 75, 150, or 300 mg. In the Stable-Dose Phase (weeks 3-4), patients continued to receive the dose that they were titrated to in the Titration Phase for 2 weeks. […]
Efficacy was based on change from week 4 to 6 on the co-primary endpoints of MWT and ESS and percentage of patients reported as improved on the PGI-C and Clinician Global Impression of Change (CGI-C); assessed on a 7-point scale from 1 (very much improved) to 7 (very much worse).
MWT and ESS data were analyzed using a mixed-effect model repeated measures (MMRM); PGI-C and CGI-C were evaluated using a chi-square test. […] Safety and tolerability were evaluated based on treatment-emergent adverse events (TEAEs), vital signs, and laboratory values.

NC(=O)OC[C@H](N)Cc1ccccc1 [JZP-110, (R)-2-amino-3-phenylpropyl carbamate]
ESS scores, effect at week 1 ([1]; 150 and 300 mg, as early as week 1): Statistically significant effects
ESS scores relative to placebo ([1]; all doses, week 12, mITT): significantly decreased ESS scores relative to placebo
Mean decrease in ESS score from week 4 to week 6 ([2]; Double-Blind Withdrawal Phase, patients who stayed on APC, P<0.0001 vs switched to placebo): 0.1
ESS score after 4 weeks of APC treatment ([2]; group decreased from 15.3 at baseline): 6.4
ESS score after 4 weeks of APC treatment ([2]; group decreased from 16.0 at baseline): 5.9
